Among the data in patent publication US9884832B2 (priority 2011, dated 2018) are inhibition values, retold here.

Each structure is given as a SMILES string.

Sequence of AM2 S31 (wild-type serine at position 31 in the M2 protein), influenza virus A/Udorn/72 (P0DOF5 whole entry, looked up): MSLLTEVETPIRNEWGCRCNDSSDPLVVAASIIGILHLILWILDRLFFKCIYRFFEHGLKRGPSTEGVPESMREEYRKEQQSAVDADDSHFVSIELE

The first assay concerns the target AM2 S31 (wild-type serine at position 31 in the M2 protein), influenza virus A/Udorn/72 (Influenza A virus, UniProt P0DOF5). The assay can be described thus: cell-based. Conditions: 100 uM; Xenopus oocytes; activity range class; read-out: S31 OOcyte Inhibition at 100 uM (%).
For `COc1ccc(C(C)NC23CC4CC(CC(C4)C2)C3)cc1` (stereo not shown) [Example 11a, N-(1-(4-methoxyphenyl)ethyl)adamantan-1-amine], the inhibition at 100 µM lay within 31 to 95%. Turning to `c1c(CNC23CC4CC(CC(C4)C2)C3)noc1C1CC1` [Example 107a, N-((5-cyclopropylisoxazol-3-yl)methyl)adamantan-1-amine], the inhibition at 100 µM is 0 to 30%. As to `CC(C)(C)c1nc(CNC23CC4CC(CC(C4)C2)C3)no1` [Example 103a, N-((5-(tert-butyl)-1,2,4-oxadiazol-3-yl)methyl)adamantan-1-amine], the inhibition at 100 µM was 0 to 30%. Consider `COc1ccc2cc(CNC34CC5CC(CC(C5)C3)C4)[nH]c2c1` [Example 186a, N-((6-methoxy-1H-indol-2-yl)methyl)adamantan-1-amine], for which the inhibition at 100 µM lay in the range of 0 to 30%. With `c1cc(CNC23CC4CC(CC(C4)C2)C3)cc(-c2cccs2)c1` [Example 34a, N-(3-(thiophen-2-yl)benzyl)adamantan-1-amine], the inhibition at 100 µM lay in the range of 0 to 30%. As to `Cc1noc(C)c1-c1ccc(CNC23CC4CC(CC(C4)C2)C3)cc1` [Example 33a, N-(4-(3,5-Dimethylisoxazol-4-yl)benzyl)adamantan-1-amine], the inhibition at 100 µM was in the range of 0 to 30%. Take `c1coc(-c2ccc(CNC34CC5CC(CC(C5)C3)C4)cn2)c1` [Example 60a, N-((6-(furan-2-yl)pyridin-3-yl)methyl)adamantan-1-amine]: the inhibition at 100 µM lay within 0 to 30%.

As for `Cc1ccc(C(C)NC23CC4CC(CC(C4)C2)C3)s1` (stereo not shown) [Example 97a, N-(1-(5-methylthiophen-2-yl)ethyl)adamantan-1-amine], the inhibition at 100 µM lay within 0 to 30%. For the compound `Clc1ccc(CNC23CC4CC(CC(C4)C2)C3)s1` [Example 79a, N-((5-chlorothiophen-2-yl)methyl)adamantan-1-amine], the inhibition at 100 µM lay in the range of 31 to 95%. Turning to `OC12CC3CC(C1)CC(NCc1cc4cc(Br)sc4s1)(C3)C2` [Example 195a, 3-[(5-Bromo-thieno[2,3-b]thiophen-2-ylmethyl)-amino]-adamantan-1-ol], the inhibition at 100 µM lay within 0 to 30%. As for `Cc1ccc(CNC23CC4CC(CC(C4)C2)C3)o1` [Example 67a], the inhibition at 100 µM was in the range of 31 to 95%.

Turning to `CCc1nc(CNC23CC4CC(CC(C4)C2)C3)no1` [Example 165a], the inhibition at 100 µM was in the range of 31 to 95%. Consider `Clc1ccc(COc2ccc(CNC34CC5CC(CC(C5)C3)C4)cc2)cc1` [Example 16a, Adamantan-1-yl-[4-(4-chloro-benzyloxy)-benzyl]-amine], for which the inhibition at 100 µM lay within 31 to 95%. For the compound `Brc1cnc(CNC23CC4CC(CC(C4)C2)C3)s1` [Example 86a, Adamantan-1-yl-(5-bromo-thiazol-2-ylmethyl)-amine], the inhibition at 100 µM is 0 to 30%. `Clc1ccc2[nH]c(CNC34CC5CC(CC(C5)C3)C4)nc2c1` [Example 181a, Adamantan-1-yl-(5-chloro-1H-benzoimidazol-2-ylmethyl)-amine]: the inhibition at 100 µM lay within 0 to 30%.

`c1ccc(-c2nc(CNC34CC5CC(CC(C5)C3)C4)c[nH]2)cc1` [Example 114a, N-((2-phenyl-1H-imidazol-4-yl)methyl)adamantan-1-amine]: the inhibition at 100 µM was in the range of 31 to 95%. `Brc1cc(CNC23CC4CC(CC(C4)C2)C3)on1` [Example 94a, N-((3-bromoisoxazol-5-yl)methyl)adamantan-1-amine]: the inhibition at 100 µM was in the range of 0 to 30%.

Regarding `c1c(CNC23CC4CC(CC(C4)C2)C3)noc1CN1CCOCC1` [Example 106a, N-((5-(morpholinomethyl)isoxazol-3-yl)methyl)adamantan-1-amine], the inhibition at 100 µM lay in the range of 0 to 30%. Turning to `Cn1c(CNC23CC4CC(CC(C4)C2)C3)cc2sccc21` [Example 172a, Adamantan-1-yl-(4-methyl-4H-thieno[3,2-b]pyrrol-5-ylmethyl)-amine], the inhibition at 100 µM was in the range of 0 to 30%.

On to `c1cc2cc(CNC34CC5CC(CC(C5)C3)C4)ccc2s1` [Example 41a, N-(benzo[b]thiophen-5-ylmethyl)adamantan-1-amine], for which the inhibition at 100 µM was in the range of 31 to 95%. For the compound `OC12CC3CC(C1)CC(NCc1ccc(Br)s1)(C3)C2` [Example 188a, 3-[(5-Bromo-thiophen-2-ylmethyl)-amino]adamantan-1-ol], the inhibition at 100 µM lay within 0 to 30%. With `Cc1ccc(CNC23CC4CC(CC(C4)C2)C3)c(O)c1` [Example 51a], the inhibition at 100 µM was 31 to 95%. As for `c1coc(-c2ncc(CNC34CC5CC(CC(C5)C3)C4)cn2)c1` [Example 62a, N-((2-(furan-2-yl)pyrimidin-5-yl)methyl)adamantan-1-amine], the inhibition at 100 µM fell in the range of 0 to 30%.

For `CSc1ccc(CNC23CC4CC(CC(C4)C2)C3)s1` [Example 90a], the inhibition at 100 µM was in the range of 31 to 95%. Same read-out and setting: the same measure for `Oc1ccc(CNC23CC4CC(CC(O)(C4)C2)C3)c(O)c1` [Example 196a, 4-[(3-Hydroxy-adamantan-1-ylamino)-methyl]-benzene-1,3-diol]: 0 to 30%; for `Cc1c(CNC23CC4CC(CC(C4)C2)C3)sc2ccccc12` [Example 177a, Adamantan-1-yl-(3-methyl-benzo[b]thiophen-2-ylmethyl)-amine]: 31 to 95%; for `OCc1cc(Br)ccc1CNC12CC3CC(CC(C3)C1)C2` [Example 52a, [2-(Adamantan-1-ylaminomethyl)-5-bromo-phenyl]methanol]: 0 to 30%.

Staying with this assay, now noted: Table 1; 100 uM; Xenopus oocytes, pH 5.5, -20 mV; read-out: S31 OOcyte Inhibition at 100 uM (%).
Turning to `c1nc2ccc(CNC34CC5CC(CC(C5)C3)C4)cc2[nH]1` [Example 94, Adamantan-1-yl-(3H-benzoimidazol-5-ylmethyl)-amine], the inhibition at 100 µM lay in the range of 0 to 30%. Turning to `CC(C)(C)C1CCC(NCc2ccc(O)cc2O)CC1` (stereo not shown) [Example 109, 4-[(4-tert-Butyl-cyclohexylamino)-methyl]-benzene-1,3-diol], the inhibition at 100 µM lay within 31 to 95%. On to `[O-][S+]1Cc2cc(CNC34CC5CC(CC(C5)C3)C4)sc2C1` (stereo not shown) [Example 85, Adamantan-1-yl-(5-oxo-5,6-dihydro-4H-5M-thieno[3,4-b]thiophen-2-ylmethyl)-amine], for which the inhibition at 100 µM was in the range of 0 to 30%. For `CCOc1ccc(CNC23CC4CC(CC(C4)C2)C3)cc1` [Example 20, Adamantan-1-yl-(4-ethoxy-benzyl)-amine], the inhibition at 100 µM is 0 to 30%. On to `Clc1c(CNC23CC4CC(CC(C4)C2)C3)nc2sccn12` [Example 87, Adamantan-1-yl-(5-chloro-imidazo[2,1-b]thiazol-6-ylmethyl)-amine], for which the inhibition at 100 µM lay within 0 to 30%.

Regarding `COc1ccc(CN(C)C23CC4CC(CC(C4)C2)C3)cc1` [Example 32, Adamantan-1-yl-(4-methoxy-benzyl)-methyl-amine], the inhibition at 100 µM fell in the range of 31 to 95%. Consider `c1cc(CNC23CC4CC(CC(C4)C2)C3)c2cc[nH]c2c1` [Example 96, Adamantan-1-yl-(1H-indol-4-ylmethyl)-amine], for which the inhibition at 100 µM is 31 to 95%. On the same count and under the same terms, the result for `CC(=O)c1sccc1-c1ccc(CNC23CC4CC(CC(C4)C2)C3)cc1` [Example 43, 1-(3-(4-((Adamantan-1-ylamino)methyl)phenyl)thiophen-2-yl)ethanone] reads 0 to 30%; that for `c1c(CNC23CC4CC(CC(C4)C2)C3)sc2c1CSC2` [Example 84, Adamantan-1-yl-(4,6-dihydro-thieno[3,4-b]thiophen-2-ylmethyl)-amine], 31 to 95%. Same read-out and setting: the same measure for `Brc1ccc(CNC23CC4CC(CC(C4)C2)C3)cc1` [Example 41, N-(4-Bromobenzyl)adamantan-1-amine]: 31 to 95%; for `COc1cc(CNC23CC4CC(CC(C4)C2)C3)ccc1O` [Example 50, 4-(Adamantan-1-ylaminomethyl)-2-methoxy-phenol]: 31 to 95%; for `CSc1ccc(CNC23CC4CC(CC(C4)C2)C3)cc1` [Example 23, Adamantan-1-yl-(4-methylsulfanyl-benzyl)-amine]: 0 to 30%. As to `c1ccc2oc(CNC34CC5CC(CC(C5)C3)C4)cc2c1` [Example 89, Adamantan-1-yl-benzofuran-2-ylmethyl-amine], the inhibition at 100 µM lay within 0 to 30%. Regarding `CSc1ccc(CNC23CC4CC(CC(C4)C2)C3)c(SC)c1` [Example 55, Adamantan-1-yl-(2,4-bis-methylsulfanyl-benzyl)-amine], the inhibition at 100 µM lay within 0 to 30%.

The assay is the same for the next values; noted with them: Table 3; 100 uM; Xenopus oocytes, pH 5.5, -20 mV; read-out: S31 OOcyte Inhibition at 100 uM (%).
As for `Cc1ccc(-c2ccc(CNC34CC5CC(CC(C5)C3)C4)s2)o1` [Example 52b, N-((5-(5-Methylfuran-2-yl)thiophen-2-yl)methyl)adamantan-1-amine], the inhibition at 100 µM lay in the range of 0 to 30%. For the compound `Brc1ccccc1-c1cc(CNC23CC4CC(CC(C4)C2)C3)no1` [Example 43b, N-((5-(2-bromophenyl)isoxazol-3-yl)methyl)adamantan-1-amine], the inhibition at 100 µM lay in the range of 0 to 30%. For the compound `COc1ccc(-c2nc(CNC34CC5CC(CC(C5)C3)C4)no2)c(OC)c1` [Example 34b, N-((5-(2,4-dimethoxyphenyl)-1,2,4-oxadiazol-3-yl)methyl)adamantan-1-amine], the inhibition at 100 µM lay within 0 to 30%.

Regarding `c1cc2nc(CNC34CC5CC(CC(C5)C3)C4)sc2s1` [Example 77b, Adamantan-1-yl-thieno[3,2-d]thiazol-2-ylmethyl-amine], the inhibition at 100 µM lay in the range of 0 to 30%.

For the compound `CC(C)(C)c1ncc(CNC23CC4CC(CC(C4)C2)C3)s1` [Example 20b, N-((2-(tert-butyl)thiazol-5-yl)methyl)adamantan-1-amine], the inhibition at 100 µM lay within 0 to 30%. Consider `O=C(CNC12CC3CC(CC(C3)C1)C2)c1cccs1` [Example 87b, 2-(adamantan-1-ylamino)-1-(thiophen-2-yl)ethanone], for which the inhibition at 100 µM fell in the range of 31 to 95%.

Consider `Cc1csc(-c2ccc(CNC34CC5CC(CC(C5)C3)C4)s2)c1` [Example 51b, N-((4′-Methyl-[2,2′-bithiophen]-5-yl)methyl)adamantan-1-amine], for which the inhibition at 100 µM was 0 to 30%.

With `CSc1ccc(-c2cc(CNC34CC5CC(CC(C5)C3)C4)no2)cc1` [Example 37b, N-((5-(4-(methylthio)phenyl)isoxazol-3-yl)methyl)adamantan-1-amine], the inhibition at 100 µM lay in the range of 0 to 30%.

For orientation: inhibition means the percentage by which the read-out fell short of the control.
